This assay concerns the target T1, mAChR M1 (UniProt P11229).
T1 sequence (P11229 1-460): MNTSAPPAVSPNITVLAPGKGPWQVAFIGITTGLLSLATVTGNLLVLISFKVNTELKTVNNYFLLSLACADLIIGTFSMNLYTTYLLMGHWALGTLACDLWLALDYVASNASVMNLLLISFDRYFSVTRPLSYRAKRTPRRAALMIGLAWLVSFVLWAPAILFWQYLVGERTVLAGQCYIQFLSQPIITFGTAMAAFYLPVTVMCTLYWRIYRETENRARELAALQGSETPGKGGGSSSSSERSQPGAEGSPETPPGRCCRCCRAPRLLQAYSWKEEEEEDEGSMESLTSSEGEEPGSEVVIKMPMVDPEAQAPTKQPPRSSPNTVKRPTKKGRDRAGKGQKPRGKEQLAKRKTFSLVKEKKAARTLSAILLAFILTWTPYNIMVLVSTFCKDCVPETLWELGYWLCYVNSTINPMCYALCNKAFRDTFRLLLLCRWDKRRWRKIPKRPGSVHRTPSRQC
The assay can be described thus: mAChR M1 cell-based functional assay (calcium mobilization, antagonist mode). The source says: Chinese hamster ovary (CHO-K1) cells stably expressing rat (r)M1 were purchased from the American Type Culture Collection and cultured according to their indicated protocol. CHO cells stably expressing human (h)M2, hM3, and hM5 were described previously (Levey, et al., 1991); hM1 and hM4 cDNAs were purchased from Missouri S&T cDNA Resource; rM4 cDNA was provided by T. I. Bonner (National Institutes of Health, Bethesda, Md.). rM2 and rM3 were cloned from a rat brain cDNA library and sequence verified. hM1, rM2, rM3, hM4, and rM4 cDNAs were used to stably transfect CHO-K1 cells purchased from the American Type Culture Collection using Lipofectamine-2000. To make stable rM2, hM2, rM3, hM4, and rM4 cell lines for use in calcium mobilization assays, these cells also were stably transfected with a chimeric G-protein (Gqi5) (provided by B. R. Conklin, University of California, San Francisco) using Lipofectamine 2000. rM1, hM1, rM3, hM3, rM5, and hM5 cells were grown in Ham's F-12 medium containing 10% heat-inactivated fetal bovine serum (FBS), 20 mM HEPES, and 50 μg/mL G418 sulfate. rM2-Gqi5, hM2-Gqi5, and hM4-Gqi5 cells were grown in the same medium also containing 500 μg/mL Hygromycin B. Stable rM4-Gqi5 cells were grown in DMEM containing 10% heat-inactivated FBS, 20 mM HEPES, 400 μg/mL G418 sulfate, and […].
For high throughput measurement of antagonist inhibited increases in intracellular calcium, CHO-K1 cells stably expressing muscarinic receptors were plated in growth medium lacking G418 and hygromycin at 15,000 cells/20 μL/well in Greiner 384-well black-walled, tissue culture (TC)-treated, clear-bottom plates (VWR). Cells were incubated overnight at 37° C. and 5% CO2. The next day, cells were washed using an ELX 405 (BioTek) with four washes (80 μL) of assay buffer then aspirated to 20 μL. Next, 20 μL of 16 μM Fluo-4/acetoxymethyl ester (Invitrogen, Carlsbad, Calif.) prepared as a 2.3 mM stock in DMSO and mixed in a 1:1 ratio with 10% (w/v) Pluronic F-127 and diluted in assay buffer was added to the wells and the cell plates were incubated for 50 min at 37° C. and 5% CO2. Dye was removed by washing with the ELX 405 (four 80 μL washes of assay buffer) then aspirated to 20 μL. Compound master plates were formatted in an 11 point CRC format (1:3 dilutions) in 100% DMSO with a starting concentration of 10 mM using the BRAVO liquid handler (Agilent). Test compound CRCs were then transferred to daughter plates (240 nL) using the Echo acoustic plate reformatter (Labcyte, Sunnyvale, Calif.) and then diluted into assay buffer (40 μL) to a 2× stock using a Thermo Fisher Combi (Thermo Fisher Scientific, Waltham, Mass.).
Calcium flux was measured using the Functional Drug Screening System (FDSS) 6000 (Hamamatsu Corporation, Tokyo, Japan) as an increase in the fluorescent static ratio. Compounds were applied to cells (20 μL, 2×) using the automated system of the FDSS 6000 at 4 s into the 300 s protocol and the data were collected at 1 Hz. At 144 s into the 300 s protocol, 10 μL of an EC20 concentration of the muscarinic receptor agonist acetylcholine was added (5×), followed by the addition of 12 μL an EC80 concentration of acetylcholine at the 230 s time point (5×). Agonist activity was analyzed as a concentration-dependent increase in calcium mobilization upon compound addition. Positive allosteric modulator activity was analyzed as a concentration-dependent increase in the EC20 acetylcholine response. Antagonist activity was analyzed as a concentration-dependent decrease in the EC80 acetylcholine response. Concentration-response curves were generated using a four-parameter logistical equation in XLfit curve fitting software (IDBS, Bridgewater, N.J.) for Excel (Microsoft, Redmond, Wash.) or Prism (GraphPad Software, Inc., San Diego, Calif.).
The calcium mobilization assay was used to determine “potency”.
For orientation: Calcium assays in cells follow changes in intracellular calcium, usually with a dye or a luminescent sensor.

The mark [1] stands for this setting: concentration of antagonist decreasing calcium flux by 50%; EC80 acetylcholine response; CHO-K1 cells expressing mAChR M1; read-out: Potency (IC50).
[2] abbreviates: dash = baseline or about zero remaining activity (table footnote).
[3] abbreviates: activity remaining at top dose of 30 μM test compound, as percentage of the response to an approx. EC80 concentration of ACh.

Structures are written as SMILES. Read-outs that look alike come from different tables or passages of the source.

Turning to `Cc1noc(C)c1S(=O)(=O)N1CC(C(=O)N2CCN(c3ccncc3)CC2)C1` [B25], the IC50 (in general, the midpoint of a concentration-inhibition curve) under setting [1] was 1.9 µM. For the same molecule, the “Remaining Activity (%)” value under setting [2] was “— (Unless otherwise indicated with a numerical value, the percent remaining activity is baseline or about zero, i.e. as indicated by “—”)”.

Consider `O=C(C1CN(S(=O)(=O)c2cccc3ncccc23)C1)N1CCN(c2ccncc2)CC1` [B26], for which the “Remaining Activity (%)” value under setting [2] is recorded as “— (Unless otherwise indicated with a numerical value, the percent remaining activity is baseline or about zero, i.e. as indicated by “—”)”.

Turning to `Cc1nc(C(F)(F)F)c(S(=O)(=O)N2CC(C(=O)N3CCN(c4ccncc4)CC3)C2)s1` [B27], the IC50 under setting [1] turned out to be 2 µM. Moreover, the “Remaining Activity (%)” value under setting [2] is “— (Unless otherwise indicated with a numerical value, the percent remaining activity is baseline or about zero, i.e. as indicated by “—”)”.

As to `O=C(C1CN(S(=O)(=O)c2cccc3nsnc23)C1)N1CCN(c2ccncc2)CC1` [B28], under setting [1], the IC50 was found to be 2.2 µM. For the same molecule, the “Remaining Activity (%)” value under setting [2] was “— (Unless otherwise indicated with a numerical value, the percent remaining activity is baseline or about zero, i.e. as indicated by “—”)”.

Regarding `O=C(C1CN(S(=O)(=O)c2ccccc2OC(F)(F)F)C1)N1CCN(c2ccncc2)CC1` [B29], the IC50 under setting [1] was found to be 2.8 µM. The “Remaining Activity (%)” value under setting [2] is listed as “— (Unless otherwise indicated with a numerical value, the percent remaining activity is baseline or about zero, i.e. as indicated by “—”)”.

As for `O=C(C1CN(S(=O)(=O)c2cccc3c(Cl)nc(Cl)cc23)C1)N1CCN(c2ccncc2)CC1` [B30], the “Remaining Activity (%)” value under setting [2] is “— (Unless otherwise indicated with a numerical value, the percent remaining activity is baseline or about zero, i.e. as indicated by “—”)”.

Take `O=C(C1CN(S(=O)(=O)c2cccc3nonc23)C1)N1CCN(c2ccccn2)CC1` [B31]: the “Remaining Activity (%)” value under setting [3] was 11%. Also, the IC50 under setting [1] is over 10 µM.

`O=C(C1CN(S(=O)(=O)c2cccc3nonc23)C1)N1CCCN(c2ccncc2)CC1` [B32]: the “Remaining Activity (%)” value under setting [3] came out at 34%. Moreover, under setting [1], the IC50 is over 10 µM.

On to `O=C(C1CN(S(=O)(=O)c2cccc3nonc23)C1)N1CCN(c2nccs2)CC1` [B33], for which the “Remaining Activity (%)” value under setting [3] was 48%. Besides, the IC50 under setting [1] is over 10 µM.

In the case of `O=C(C1CN(S(=O)(=O)c2cccc(Cl)c2F)C1)N1CCN(c2ccncc2)CC1` [B34], the “Remaining Activity (%)” value under setting [3] was found to be 11%.

On to `O=C(C1CN(S(=O)(=O)c2cc(Cl)ccc2F)C1)N1CCN(c2ccncc2)CC1` [B35], for which the “Remaining Activity (%)” value under setting [3] is reported as 32%. Further, the IC50 under setting [1] is over 10 µM.

For the molecule `O=C(C1CN(S(=O)(=O)c2cccc(Cl)c2)C1)N1CCN(c2ccncc2)CC1` [B36], under setting [3], the “Remaining Activity (%)” value is 27%.

Regarding `O=C(C1CN(S(=O)(=O)c2ccc3cn[nH]c3c2)C1)N1CCN(c2ccncc2)CC1` [B37], the “Remaining Activity (%)” value under setting [3] turned out to be 26%. Also, the IC50 under setting [1] was over 10 µM.

Turning to `COc1ccc(S(=O)(=O)N2CC(C(=O)N3CCN(c4ccncc4)CC3)C2)cn1` [B38], under setting [3], the “Remaining Activity (%)” value stood at 23%. In addition, under setting [1], the IC50 was over 10 µM.

With `O=C(C1CN(S(=O)(=O)c2cnc3ccccc3c2)C1)N1CCN(c2ccncc2)CC1` [B39], the “Remaining Activity (%)” value under setting [3] was 48%. Also, the IC50 under setting [1] is over 10 µM.

On to `Cc1ccnc(S(=O)(=O)N2CC(C(=O)N3CCN(c4ccncc4)CC3)C2)c1` [B40], for which the “Remaining Activity (%)” value under setting [3] was 41%. Besides, the 50% inhibitory concentration (IC50) under setting [1] was over 10 µM.

With `O=C(C1CN(S(=O)(=O)c2ccc(C(F)(F)F)nc2)C1)N1CCN(c2ccncc2)CC1` [B41], the “Remaining Activity (%)” value under setting [3] is 37%. Also, the IC50 under setting [1] was over 10 µM.

For `O=C(C1CN(S(=O)(=O)c2ccc(Cl)cn2)C1)N1CCN(c2ccncc2)CC1` [B42], the “Remaining Activity (%)” value under setting [3] is 34%. In addition, the IC50 under setting [1] was over 10 µM.

In the case of `CC(C)(C)CS(=O)(=O)N1CC(C(=O)N2CCN(c3ccncc3)CC2)C1` [B43], the “Remaining Activity (%)” value under setting [3] was determined as 43%. Moreover, under setting [1], the IC50 is over 10 µM.

Consider `CC(C)S(=O)(=O)N1CC(C(=O)N2CCN(c3ccncc3)CC2)C1` [B44], for which the “Remaining Activity (%)” value under setting [3] was 59%. The IC50 under setting [1] was over 10 µM.

For the molecule `O=C(C1CN(S(=O)(=O)c2cccc3c2OCCO3)C1)N1CCN(c2ccncc2)CC1` [B45], the “Remaining Activity (%)” value under setting [3] was 27%. Moreover, the concentration for half-maximal inhibition (IC50) under setting [1] was over 10 µM.

Take `CCC(C)S(=O)(=O)N1CC(C(=O)N2CCN(c3ccncc3)CC2)C1` (centres unmarked) [B46]: the “Remaining Activity (%)” value under setting [3] is listed as 52%. Besides, under setting [1], the IC50 was over 10 µM.

In the case of `O=C(C1CN(S(=O)(=O)C2CCCCC2)C1)N1CCN(c2ccncc2)CC1` [B47], the “Remaining Activity (%)” value under setting [3] is recorded as 50%. Under setting [1], the IC50 is over 10 µM.

Turning to `O=C(C1CN(S(=O)(=O)c2cccc3cnccc23)C1)N1CCC(c2cccnc2)C1` (centres unmarked) [B48], the “Remaining Activity (%)” value under setting [3] is on record as 30%. For the same molecule, under setting [1], the IC50 was over 10 µM.

On to `CN1C(=O)Cc2cc(S(=O)(=O)N3CC(C(=O)N4CCN(c5ccncc5)CC4)C3)ccc21` [B49], for which, under setting [3], the “Remaining Activity (%)” value amounted to 48%. Further, under setting [1], the IC50 is over 10 µM.

With `Cn1ccc2cc(S(=O)(=O)N3CC(C(=O)N4CCN(c5ccncc5)CC4)C3)ccc21` [B50], the “Remaining Activity (%)” value under setting [3] stood at 59%. The IC50 under setting [1] was over 10 µM.

As to `O=C(C1CN(S(=O)(=O)c2cccc3cnccc23)C1)N1CCc2cccnc2C1` [B51], the “Remaining Activity (%)” value under setting [3] came out at 60%. Under setting [1], the IC50 is over 10 µM.

Turning to `O=C(C1CN(S(=O)(=O)c2cccc3ncccc23)C1)N1CC2CN(c3ccncc3)CC2C1` (centres unmarked) [B52], under setting [1], the IC50 was 3.5 µM. Moreover, under setting [2], the “Remaining Activity (%)” value is reported as “— (Unless otherwise indicated with a numerical value, the percent remaining activity is baseline or about zero, i.e. as indicated by “—”)”.

Regarding `O=C(C1CN(S(=O)(=O)c2cccc3nsnc23)C1)N1CC2CN(c3ccncc3)CC2C1` (centres unmarked) [B53], under setting [2], the “Remaining Activity (%)” value was “— (Unless otherwise indicated with a numerical value, the percent remaining activity is baseline or about zero, i.e. as indicated by “—”)”.

For the molecule `O=C(C1CN(S(=O)(=O)c2cccnc2Cl)C1)N1CC2CN(c3ccncc3)CC2C1` (centres unmarked) [B54], the IC50 under setting [1] worked out at 0.93 µM. In addition, under setting [2], the “Remaining Activity (%)” value is “— (Unless otherwise indicated with a numerical value, the percent remaining activity is baseline or about zero, i.e. as indicated by “—”)”.

Regarding `CC(C)(C)CS(=O)(=O)N1CC(C(=O)N2CC3CN(c4ccncc4)CC3C2)C1` (centres unmarked) [B55], the “Remaining Activity (%)” value under setting [3] is given as 56%. For the same molecule, the IC50 (read-out: Potency (IC50); concentration of antagonist decreasing calcium flux by 50%; EC80 acetylcholine response; CHO-K1 cells expressing mAChR M1) was over 10 µM.

For `O=C(C1CN(S(=O)(=O)c2cccc3nonc23)C1)N1CC2CN(c3ccncc3)CC2C1` (centres unmarked) [B56], the IC50 under setting [1] is 0.96 µM. Besides, under setting [2], the “Remaining Activity (%)” value was “— (Unless otherwise indicated with a numerical value, the percent remaining activity is baseline or about zero, i.e. as indicated by “—”)”.
